# Assay results from ChEMBL document CHEMBL3865823, “Ameliorative effects of amide derivatives of 1,3,4-thiadiazoles on scopolamine induced cognitive dysfunction” (Eur J Med Chem, 2016).
# How the values were obtained:
# [1] = system: Mus musculus; test: Neuroprotective activity against scopolamine-induced oxidative damage in albino mouse assessed as nitrite level in plasma at 0.5 mg/kg, ip administered 5 mins post scopolamine-challenge by Greiss assay (reference value: 483.5 +/- 27.1 ug/ml); type: functional
# [2] = system: Mus musculus; test: Neuroprotective activity against scopolamine-induced oxidative damage in albino mouse assessed as glutathione reductase level in brain measured per mg of protein at 0.5 mg/kg, ip administered 5 mins post scopolamine-challenge by Ellamns assay (reference value: 0.008 +/- 0.001 umol); type: functional
# [3] = system: Mus musculus; test: Neuroprotective activity against scopolamine-induced oxidative damage in albino mouse assessed as superoxide dismutase level in brain at 0.5 mg/kg, ip administered 5 mins post scopolamine-challenge measured at every 30 to 60 secs interval for 2 mins by NBT reduction assay (reference value: 0.17 +/- 0.03 U/mg); type: functional
# [4] = system: Mus musculus; test: Neuroprotective activity against scopolamine-induced oxidative damage in albino mouse assessed as lipid peroxidation in brain by measuring MDA level per mg protein at 0.5 mg/kg, ip administered 5 mins post scopolamine-challenge by TBARS assay (reference value: 2.73 +/- 0.36 mol); type: functional
# [5] = system: Mus musculus; test: Inhibition of scopolamine-induced increase in AchE level in albino mouse assessed as AChE level in brain at 0.5 mg/kg, ip administered 5 mins post scopolamine-challenge using acetlythiocholine iodidie as substrate by Ellman's method (reference value: 0.011 +/- 0.0022 umol/min/mg); type: functional
# [6] = target: T1, Acetylcholinesterase (Mus musculus, UniProt P21836); test: Uncompetitive inhibition of albino mouse brain AChE using acetylthiocholine iodide as substrate measured up to 2 mins by Ellmans method
# T1 sequence (P21836 whole entry): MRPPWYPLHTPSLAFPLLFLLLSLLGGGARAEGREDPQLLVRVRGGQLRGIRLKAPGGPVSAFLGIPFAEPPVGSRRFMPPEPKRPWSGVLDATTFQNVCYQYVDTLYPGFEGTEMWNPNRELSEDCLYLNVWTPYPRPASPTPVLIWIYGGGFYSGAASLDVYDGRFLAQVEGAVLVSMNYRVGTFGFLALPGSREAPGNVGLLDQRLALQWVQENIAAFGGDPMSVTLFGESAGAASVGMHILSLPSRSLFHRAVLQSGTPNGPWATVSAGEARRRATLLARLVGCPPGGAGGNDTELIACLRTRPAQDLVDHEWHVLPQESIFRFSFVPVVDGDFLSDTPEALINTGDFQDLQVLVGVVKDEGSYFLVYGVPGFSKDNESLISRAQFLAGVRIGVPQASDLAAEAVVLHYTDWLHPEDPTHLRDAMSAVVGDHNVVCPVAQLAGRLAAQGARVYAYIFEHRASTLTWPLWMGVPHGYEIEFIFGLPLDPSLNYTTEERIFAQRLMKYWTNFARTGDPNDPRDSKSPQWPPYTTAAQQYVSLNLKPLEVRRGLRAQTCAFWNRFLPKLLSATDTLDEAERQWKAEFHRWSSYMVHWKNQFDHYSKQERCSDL
# [7] = target: T1, Acetylcholinesterase; test: Inhibition of albino mouse brain AChE using acetylthiocholine iodide as substrate measured for 2 mins by Ellmans method; type: tissue-based
# [8] = system: Mus musculus; test: Neuroprotective activity against scopolamine-induced oxidative damage in albino mouse assessed as catalase activity by measuring H2O2 decomposition per mg of protein at 0.5 mg/kg, ip administered 5 mins post scopolamine-challenge (reference value: 1.37 +/- 0.25 micromol/min); type: functional
# [9] = target: T1, Acetylcholinesterase; test: Competitive inhibition of albino mouse brain AChE using acetylthiocholine iodide as substrate measured up to 2 mins by Ellmans method
# [10] = system: Mus musculus; test: Antiamnesic activity against scopolamine-induced memory loss in albino mouse assessed as time spent in target quadrant at 0.5 mg/kg, ip administered 5 mins post scopolamine-challenge and 35 mins prior to training measured on day 5 by Morris water maze test (reference value: 4 +/- 1.15 sec); type: functional
# [11] = system: Mus musculus; test: Antiamnesic activity against scopolamine-induced memory loss in albino mouse assessed as escape latency time at 0.5 mg/kg, ip administered 5 mins post scopolamine-challenge and 35 mins prior to training measured on day 5 by Morris water maze test (reference value: 84.92 +/- 1.64 sec); type: functional
# [12] = system: Mus musculus; test: Antiamnesic activity against scopolamine-induced memory loss in albino mouse assessed as escape latency time at 0.5 mg/kg, ip administered 5 mins post scopolamine-challenge and 35 mins prior to training measured on day 4 by Morris water maze test (reference value: 87.17 +/- 1.03 sec); type: functional
# [13] = system: Mus musculus; test: Antiamnesic activity against scopolamine-induced memory loss in albino mouse assessed as escape latency time at 0.5 mg/kg, ip administered 5 mins post scopolamine-challenge and 35 mins prior to training measured on day 3 by Morris water maze test (reference value: 88.33 +/- 0.95 sec); type: functional
# [14] = system: Mus musculus; test: Antiamnesic activity against scopolamine-induced memory loss in albino mouse assessed as escape latency time at 0.5 mg/kg, ip administered 5 mins post scopolamine-challenge and 35 mins prior to training measured on day 2 by Morris water maze test (reference value: 89.41 +/- 0.39 sec); type: functional
# [15] = system: Mus musculus; test: Antiamnesic activity against scopolamine-induced memory loss in albino mouse assessed as escape latency time at 0.5 mg/kg, ip administered 5 mins post scopolamine-challenge and 35 mins prior to training measured on day 1 by Morris water maze test (reference value: 89.67 +/- 0.23 sec); type: functional
# [16] = system: Mus musculus; test: Antiamnesic activity against scopolamine-induced memory loss in albino mouse assessed as latency to reach shock free zone at 0.5 mg/kg, ip administered 5 mins post scopolamine-challenge and 35 mins prior to training by passive avoidance test (reference value: 53.25 +/- 1.37 sec); type: functional
# [17] = system: Mus musculus; test: Antiamnesic activity against scopolamine-induced memory loss in albino mouse assessed as basal latency to reach shock free zone at 0.5 mg/kg, ip administered 5 mins post scopolamine-challengen and 35 mins prior to training by passive avoidance test (reference value: 40.25 +/- 2.84 sec); type: functional
# [18] = system: Mus musculus; test: Antiamnesic activity against scopolamine-induced memory loss in albino mouse assessed as number of mistakes at 0.5 mg/kg, ip administered 5 mins post scopolamine-challenge and 35 mins prior to training by passive avoidance test (reference value: 12.25 +/- 0.47); type: functional
smiles,measurement,setting,value
O=C(Nc1nnc(Cc2ccccc2)s1)c1cccc(CCl)c1,Activity,[1],324.8 µg/mL
same,Activity,[2],0.01 µmol
same,Activity,[3],5.26 U/mg
same,Activity,[4],0.98 nmol
same,Activity,[5],0.003 µmol/min/mg
same,Ki,[6],5.06 µM
same,IC50,[7],20.3 µM
same,Activity,[8],1.74 µmol/min
CC(CC(=O)Nc1nnc(-c2cccc(Cl)c2)s1)CC(C)(C)C (stereo not given),Ki,[6],2.67 µM
same,IC50,[7],13.7 µM
CC(=O)Oc1cccc(C(=O)Nc2nnc(-c3ccccc3)s2)c1,Ki,[9],0.91 µM
same,IC50,[7],3.78 µM
CC(=O)Oc1cccc(C(=O)Nc2nnc(Cc3ccccc3)s2)c1,Ki,[6],5.67 µM
same,IC50,[7],11.6 µM
Cc1ccc(-c2nnc(NC(=O)CC(C)CC(C)(C)C)s2)cc1 (stereo not given),Ki,[6],8.36 µM
same,IC50,[7],23.7 µM
CC(=O)Oc1cccc(C(=O)Nc2nnc(-c3ccc(C)cc3)s2)c1,Ki,[6],3.77 µM
same,IC50,[7],10.8 µM
CC(CC(=O)Nc1nnc(-c2ccccc2)s1)CC(C)(C)C (stereo not given),Ki,[6],7.6 µM
same,IC50,[7],23.7 µM
CCN(C)C(=O)Oc1cccc([C@H](C)N(C)C)c1 [RIVASTIGMINE],Activity,[1],418.2 µg/mL
same,Activity,[2],0.014 µmol
same,Activity,[3],4.24 U/mg
same,Activity,[4],2.34 nmol
same,Activity,[5],0.005 µmol/min/mg
same,Time,[10],15 s
same,Time,[11],34.08 s
same,Time,[12],54.58 s
same,Time,[13],72.92 s
same,Time,[14],83.83 s
same,Time,[15],89.75 s
same,Time,[16],12.25 s
same,Time,[17],37.08 s
same,Activity,[8],1.88 µmol/min
same,Activity,[18],8.75
